Measurements: patent US11339144B2 (Navitor Pharmaceuticals, Inc., priority 2017, dated 2022)
Where two headings read alike, the source gives them in different places.

How the values were obtained:
[1] = test system: mTORC1 and mTORC2 signaling in PC3 cells; experiment: Long-term treatment vs. rapamycin in PC3 cells, Western blot; type: cell-based; details: replete, 2, 5, 18 or 24 hrs, NR1 30 μM, rapamycin 100 nM
[2] = molecular target: HA-GST-Rheb (GTP-γ-S loaded) activating mTORC1 (Homo sapiens (Human), UniProt Q15382); experiment: Rheb-dependent in vitro kinase assay (Rheb-IVK; LanthaScreen or Western readout); type: biochemical
T389pS6K1 in MCF-7 cells = experiment: Cell-based AlphaLISA assay, pS6K1 (Thr389)
Rheb = Rheb (Homo sapiens (Human), UniProt Q15382); experiment: Affinity Selection Mass Spectrometry (ASMS); type: binding; details: affinity (R3/R0) in Affinity Selection Mass Spectrometry assay
How it was run: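 Affinity selection used 2 μM compound with 60 μM Rheb and 180 μM GDP for 30 min at room temperature. After 10 kDa ultrafiltration washes, protein was denatured in MeCN and bound compound quantified by C18 UPLC with Q-TOF MS, against a no-protein control.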

S473pAkt in MCF-7 cells = experiment: Cell-based AlphaLISA assay, pAkt (S473)
[3] = Rheb-dependent in vitro kinase assay, read-out: IVK IC50
[4] = LanthaScreen variation, Terbium labeled T46p4E-BP1 specific antibody, read-out: IC50 in the Rheb-IVK

Rheb, sequence (Q15382 1-169 limits assumed): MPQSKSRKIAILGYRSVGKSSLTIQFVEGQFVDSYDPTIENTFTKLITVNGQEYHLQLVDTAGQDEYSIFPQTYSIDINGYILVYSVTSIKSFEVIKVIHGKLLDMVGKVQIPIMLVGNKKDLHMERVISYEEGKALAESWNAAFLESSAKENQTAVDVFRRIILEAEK
HA-GST-Rheb (GTP-γ-S loaded) activating mTORC1, sequence (Q15382 1-181): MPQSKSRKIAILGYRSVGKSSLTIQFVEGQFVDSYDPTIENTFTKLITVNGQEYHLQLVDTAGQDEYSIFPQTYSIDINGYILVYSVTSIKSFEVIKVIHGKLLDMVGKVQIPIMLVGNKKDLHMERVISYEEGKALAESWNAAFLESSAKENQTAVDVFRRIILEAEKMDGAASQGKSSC

| Compound | IC50 [2, 3] [µM] | ASMS (R3/R0) (Rheb) | other results |
| --- | --- | --- | --- |
| CO[C@H]1C[C@@H]2CC[C@@H](C)[C@@](O)(O2)C(=O)C(=O)N2CCCC[C@H]2C(=O)O[C@H]([C@H](C)C[C@@H]2CC[C@@H](O)[C@H](OC)C2)CC(=O)[C@H](C)/C=C(\C)[C@@H](O)[C@@H](OC)C(=O)[C@H](C)C[C@H](C)/C=C/C=C/C=C/1C [rapamycin, reference compound] |  |  | mTORC1 versus mTORC2 signaling with chronic exposure (T389pS6K1, S473pAkt) [1]: inhibits mTORC2 signaling with chronic exposure; inhibition of the Rheb-IVK ([2]; LanthaScreen variation, no FKBP12 present): did not inhibit the Rheb-IVK |
| CN1CCC(CCNC(=O)c2cc3c(Sc4ccc(Cl)cc4)cc(Cl)cc3[nH]2)CC1 [I-142, 6-chloro-4-(4-chlorophenylthio)-N-(2-(1-methylpiperidin-4-yl)ethyl)-1H-indole-2-carboxamide] | < 10 | A (an affinity (R3/R0)>100%) | IC50 (T389pS6K1 in MCF-7 cells; Homo sapiens, MCF7): < 10 µM |
| CN1CCC(CCNC(=O)c2cc3c(Sc4ccc(Cl)cc4Cl)cc(Cl)cc3[nH]2)CC1 [I-106, 6-chloro-4-(2,4-dichlorophenylthio)-N-(2-(1-methylpiperidin-4-yl)ethyl)-1H-indole-2-carboxamide] | < 10 | B (an affinity (R3/R0) between 100% and 20%) | IC50 (T389pS6K1 in MCF-7 cells; Homo sapiens, MCF7): < 10 µM |
| CN1CCC(CNC(=O)c2cc3c(Sc4ccc(Cl)cc4Cl)cc(Cl)cc3[nH]2)CC1 [I-120, 6-chloro-4-(2,4-dichlorophenylthio)-N-((1-methylpiperidin-4-yl)methyl)-1H-indole-2-carboxamide] | < 10 | B (an affinity (R3/R0) between 100% and 20%) | IC50 (T389pS6K1 in MCF-7 cells; Homo sapiens, MCF7): < 10 µM |
| CN(C)C(=O)c1ccc(Cn2c(C(=O)O)cc3c(Br)cc(Sc4ccc(Cl)c(Cl)c4)cc32)cc1 [I-102, 4-Bromo-6-(3,4-dichlorophenylthio)-1-(4-(dimethylcarbamoyl)benzyl)-1H-indole-2-carboxylic acid] | < 10 | B (an affinity (R3/R0) between 100% and 20%) | inhibition of pAKT (S473pAkt in MCF-7 cells): did not inhibit pAKT; IC50 [2, 4]: ~2.1 µM |
| CCC(=O)N1CCN(c2ccc(-n3c(=O)ccc4cnc5ccc(-c6cnc7ccccc7c6)cc5c43)cc2C(F)(F)F)CC1 [Torin-1, reference compound] |  |  | IC50 (S473pAkt in MCF-7 cells): ~0.005 µM; IC50 (T389pS6K1 in MCF-7 cells): ~0.001 µM; IC50 [2, 4]: ~0.002 µM |
| CN1CCN(c2cccc(NC(=O)c3cc4c(-c5cc(Cl)cc(Cl)c5)cc(Cl)cc4[nH]3)c2)CC1 [I-30, 6-chloro-4-(3,5-dichlorophenyl)-N-(3-(4-methylpiperazin-1-yl)phenyl)-1H-indole-2-carboxamide] | < 10 | A (an affinity (R3/R0)>100%) | IC50 (T389pS6K1 in MCF-7 cells; Homo sapiens, MCF7): < 10 µM |
| CC(C)(C)OC(=O)N1CCN(c2cc(-c3nc4cc(Cl)c(Cl)cc4[nH]3)ccn2)CC1 [I-347] | > 100 | B (an affinity (R3/R0) between 100% and 20%) |  |
| OCc1cc2c(Cl)cc(Oc3ccccc3)cc2[nH]1 [I-252, (4-chloro-6-phenoxy-1H-indol-2-yl)methanol] | 10 to 100 | B (an affinity (R3/R0) between 100% and 20%) |  |
| NCc1cc2c(Oc3ccccc3)cc(Cl)cc2[nH]1 [I-170, (6-chloro-4-phenoxy-1H-indol-2-yl)methanamine] | 10 to 100 | B (an affinity (R3/R0) between 100% and 20%) |  |
| OCc1nc2cc(OCc3ccccc3F)c(Cl)cc2[nH]1 [I-481] | > 100 | C (an affinity (R3/R0)<20%) |  |
| OCc1cc2c(Oc3ccc(Cl)cc3)cccc2[nH]1 [I-263, (4-(4-chlorophenoxy)-1H-indol-2-yl)methanol] | 10 to 100 | C (an affinity (R3/R0)<20%) |  |
| CN1CCN(C(=O)Cc2nc3cc(Cl)c(OCc4ccc(Cl)cc4)cc3[nH]2)CC1 [I-332, 2-[5-chloro-6-[(4-chlorophenyl)methoxy]-1H-benzimidazol-2-yl]-1-(4-methylpiperazin-1-yl)ethanone] | 10 to 100 | A (an affinity (R3/R0)>100%) |  |
| CN1CCN(C(=O)c2cc3nc(-c4ccnc5[nH]ccc45)[nH]c3c(Cl)c2Cl)CC1 [I-321] | > 100 | C (an affinity (R3/R0)<20%) |  |

Further lines, with some results ahead:

| IC50 [2, 3] [µM] | Compound | ASMS (R3/R0) (Rheb) | other results |
| --- | --- | --- | --- |
| < 10 | CN1CCN(c2ccc(NC(=O)c3cc4c(Sc5ccc(Cl)cc5)cc(Cl)cc4[nH]3)cc2F)CC1 [I-141, 6-chloro-4-(4-chlorophenylthio)-N-(3-fluoro-4-(4-methylpiperazin-1-yl)phenyl)-1H-indole-2-carboxamide] | B (an affinity (R3/R0) between 100% and 20%) | IC50 (T389pS6K1 in MCF-7 cells; Homo sapiens, MCF7): < 10 µM |
| < 10 | CN1CCC(NC(=O)c2cc3c(Sc4ccc(Cl)cc4)cc(Cl)cc3[nH]2)C1 (centres unmarked) [I-79, 6-chloro-4-(4-chlorophenylthio)-N-(1-methylpyrrolidin-3-yl)-1H-indole-2-carboxamide] | B (an affinity (R3/R0) between 100% and 20%) | IC50 (T389pS6K1 in MCF-7 cells; Homo sapiens, MCF7): < 10 µM |
| > 100 | COC(=O)c1cc2c(Sc3ccc(Br)cc3)cc(Cl)cc2[nH]1 [I-99] | B (an affinity (R3/R0) between 100% and 20%) |  |
| < 10 | CN(C)C(=O)c1ccc(Cn2c(C(=O)O)cc3c(Br)cc(SCCc4ccc(Cl)c(Cl)c4)cc32)cc1 [I-25, 4-bromo-6-(3,4-dichlorophenethylthio)-1-(4-(dimethylcarbamoyl)benzyl)-1H-indole-2-carboxylic acid] | B (an affinity (R3/R0) between 100% and 20%) |  |
| < 10 | CN(C)C(=O)c1ccc(Cn2c(C(=O)O)cc3c(C#N)cc(Sc4ccc(Cl)c(Cl)c4)cc32)cc1 [I-7, 4-cyano-6-(3,4-dichlorophenylthio)-1-(4-(dimethylcarbamoyl)benzyl)-1H-indole-2-carboxylic acid] | B (an affinity (R3/R0) between 100% and 20%) |  |
| > 100 | O=C(O)c1cc2c(Sc3ccc(Cl)cc3Cl)cc(Cl)cc2n1Cc1ccc(Br)cc1 [I-103] | B (an affinity (R3/R0) between 100% and 20%) |  |
| < 10 | O=C(O)c1ccc(Cn2c(C(=O)O)cc3c(Br)cc(Sc4ccc(Cl)c(Cl)c4)cc32)cc1 [I-42, 4-bromo-1-(4-carboxybenzyl)-6-(3,4-dichlorophenylthio)-1H-indole-2-carboxylic acid] | B (an affinity (R3/R0) between 100% and 20%) |  |
| 10 to 100 | O=C(O)c1cc2c(OCc3ccc(Cl)cc3)cc(Cl)c(Cl)c2[nH]1 [I-60, 6,7-dichloro-4-(4-chlorobenzyloxy)-1H-indole-2-carboxylic acid] | B (an affinity (R3/R0) between 100% and 20%) |  |
| < 10 | CN(C)C(=O)c1ccc(Cn2c(C(=O)O)cc3ccc(Sc4ccc(Cl)c(Cl)c4)c(Br)c32)cc1 [I-6, 7-bromo-6-(3,4-dichlorophenylthio)-1-(4-(dimethylcarbamoyl)benzyl)-1H-indole-2-carboxylic acid] | B (an affinity (R3/R0) between 100% and 20%) |  |
| 10 to 100 | O=C(Nc1ccc(N2CCN(Cc3ccccc3)CC2)c(F)c1)c1cc2c(Sc3ccc(Cl)cc3Cl)cc(Cl)cc2[nH]1 [I-91, N-(4-(4-benzylpiperazin-1-yl)-3-fluorophenyl)-6-chloro-4-(2,4-dichlorophenylthio)-1H-indole-2-carboxamide] | B (an affinity (R3/R0) between 100% and 20%) |  |
| < 10 | CN1CCN(c2cccc(NC(=O)c3cc4c(Sc5ccc(Cl)cc5Cl)cc(Cl)c(Cl)c4[nH]3)c2)CC1 [I-33, 6,7-dichloro-4-(2,4-dichlorophenylthio)-N-(3-(4-methylpiperazin-1-yl)phenyl)-1H-indole-2-carboxamide] | A (an affinity (R3/R0)>100%) |  |
| > 100 | CS(=O)(=O)CCNC(=O)c1cc2c(Sc3ccc(Cl)cc3)cc(Cl)cc2[nH]1 [I-137] | A (an affinity (R3/R0)>100%) |  |
| < 10 | O=C(O)c1cc2c(Cl)cc(Sc3ccc(Cl)c(Cl)c3)cc2[nH]1 [I-100, 4-chloro-6-(3,4-dichlorophenylthio)-1H-indole-2-carboxylic acid] | B (an affinity (R3/R0) between 100% and 20%) |  |
| > 100 | O=C(NCC1CCN(Cc2ccccc2)C1)c1cc2c(Sc3ccc(Cl)cc3)cc(Cl)cc2[nH]1 (centres unmarked) [I-136] | A (an affinity (R3/R0)>100%) |  |
